Data taken from patent US20250115591A1, “NOVEL SULFONAMIDE CARBOXAMIDE COMPOUNDS” (INFLAZOME LIMITED, priority 2017, published 2025).
Where a name gives a salt, the structure may show the parent alone.

What follows are compounds tested against NLRP3 (Homo sapiens (Human), UniProt Q96P20) (assay: THP-1 cells pyroptosis assay (LPS + nigericin, resazurin read-out)). Settings: 1 μg/ml LPS, 5 μM nigericin.
Assay type: cell-based
Procedure: THP-1 cells (ATCC #TIB-202) were grown in RPMI containing L-glutamine (Gibco 15 #11835) supplemented with 1 mM sodium pyruvate (Sigma #S8636) and penicillin (100 units/ml)/streptomycin (0.1 mg/ml) (Sigma #P4333) in 10% Fetal Bovine Serum (FBS) (Sigma #F0804). The cells were routinely passaged and grown to confluency (˜10^6 cells/ml). On the day of the experiment, THP-1 cells were harvested and resuspended into RPMI medium (without FBS). The cells were then counted and viability (>90%) checked by Trypan blue (Sigma #T8154). Appropriate dilutions were made to give a concentration of 625,000 cells/ml. To this diluted cell solution was added LPS (Sigma #[4524) to give a 1 μg/ml Final Assay Concentration (FAC). 40μ of the final preparation was aliquoted into each well of a 96-well plate. The plate thus prepared was used for compound screening.
The following method step-by-step assay was followed for compound screening. • 1. Seed THP-1 cells (25,000 cells/well) containing 1.0 μg/ml LPS in 40μ of RPMI medium (without FBS) in 96-well, black walled, clear bottom cell culture plates coated with poly-D-lysine (VWR #734-0317) • 2. Add 5 μl compound (8 points half-log dilution, with […]) or vehicle (DMSO 0.1% FAC) to the appropriate wells • 3. Incubate for 3 hrs at 37° C. and 5% CO2 • 4. Add 5 μl nigericin (Sigma #N7143) (FAC 5 μM) to all wells • 5. Incubate for 1 hr at 37° C. and 5% CO2 • 6. At the end of the incubation period, spin plates at 300×g for 3 mins and remove supernatant • 7. Then add 50 μl of resazurin (Sigma #R7017) (FAC 100 μM resazurin in RPMI medium without FBS) and incubate plates for a further 1-2 hrs at 37° C. and 5% CO2 • 8. Plates were read in an Envision reader at Ex 560 nm and Em 590 nm • 9. IC50 data is fitted to a non-linear regression equation (log inhibitor vs response-variable slope 4-parameters)

Sequence of NLRP3 (Q96P20 whole entry): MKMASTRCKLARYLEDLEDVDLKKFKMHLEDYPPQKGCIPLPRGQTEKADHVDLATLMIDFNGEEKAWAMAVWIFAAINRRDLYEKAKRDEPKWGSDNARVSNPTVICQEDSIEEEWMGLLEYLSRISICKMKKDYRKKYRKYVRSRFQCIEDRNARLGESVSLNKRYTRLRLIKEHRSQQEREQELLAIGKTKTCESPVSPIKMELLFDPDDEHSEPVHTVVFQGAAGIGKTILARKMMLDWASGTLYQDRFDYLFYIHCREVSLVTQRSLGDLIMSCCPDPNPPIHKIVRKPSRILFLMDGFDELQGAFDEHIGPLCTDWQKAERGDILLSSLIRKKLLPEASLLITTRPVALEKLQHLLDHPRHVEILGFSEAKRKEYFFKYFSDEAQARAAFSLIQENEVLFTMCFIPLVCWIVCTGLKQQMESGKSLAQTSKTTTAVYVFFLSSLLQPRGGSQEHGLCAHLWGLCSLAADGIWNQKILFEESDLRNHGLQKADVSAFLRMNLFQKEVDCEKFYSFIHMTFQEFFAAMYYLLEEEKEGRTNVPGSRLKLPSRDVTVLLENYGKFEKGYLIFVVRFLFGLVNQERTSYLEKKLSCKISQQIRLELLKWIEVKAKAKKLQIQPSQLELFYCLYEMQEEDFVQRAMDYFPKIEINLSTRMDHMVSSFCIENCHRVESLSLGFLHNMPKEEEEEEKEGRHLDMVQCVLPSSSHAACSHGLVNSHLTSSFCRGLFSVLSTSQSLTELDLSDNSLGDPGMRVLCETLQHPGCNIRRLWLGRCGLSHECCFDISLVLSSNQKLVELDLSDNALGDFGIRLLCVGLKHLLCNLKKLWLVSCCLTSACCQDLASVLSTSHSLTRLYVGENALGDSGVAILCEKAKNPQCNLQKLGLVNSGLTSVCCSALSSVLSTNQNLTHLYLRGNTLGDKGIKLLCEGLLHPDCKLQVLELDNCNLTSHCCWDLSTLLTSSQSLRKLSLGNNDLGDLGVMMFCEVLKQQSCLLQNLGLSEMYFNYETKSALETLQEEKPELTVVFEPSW

Row | SMILES | IC50 [µM]
1 | CN1CCC(S(=O)(=O)NC(=O)Nc2c3c(cc4c2CCC4)CCC3)C1 (stereo not drawn) [Example 36, N-((1,2,3,5,6,7-Hexahydro-s-indacen-4-yl)carbamoyl)-1-methylpyrrolidine-3-sulfonamide, potassium salt] | 1 to 10
2 | CN1CCCC(S(=O)(=O)NC(=O)Nc2c3c(cc4c2CCC4)CCC3)CC1 (stereo not drawn) [Example 195, N-((1,2,3,5,6,7-hexahydro-s-indacen-4-yl)carbamoyl)-1-methylazepane-4-sulfonamide, potassium salt] | < 1
3 | CN(C)CCN1CC(S(=O)(=O)NC(=O)Nc2c3c(cc4c2CCC4)CCC3)C1 [Example 102, 1-(2-(Dimethylamino)ethyl)-N-((1,2,3,5,6,7-hexahydro-s-indacen-4-yl)carbamoyl)azetidine-3-sulfonamide, potassium salt] | 1 to 10
4 | CC(C)n1ccc(S(=O)(=O)NC(=O)Nc2c3c(cc4c2CCC4)CCC3)cc1=O [Example 180, N-((1,2,3,5,6,7-Hexahydro-s-indacen-4-yl)carbamoyl)-1-isopropyl-2-oxo-1,2-dihydropyridine-4-sulfonamide, sodium salt] | 1 to 10
5 | CC(C)N1CC(N2CCC(S(=O)(=O)NC(=O)Nc3c4c(cc5c3CCC5)CCC4)C2)C1 (stereo not drawn) [Example 51, N-((1,2,3,5,6,7-Hexahydro-s-indacen-4-yl)carbamoyl)-1-(1-isopropylazetidin-3-yl)pyrrolidine-3-sulfonamide, potassium salt] | 1 to 10
6 | COC(=O)CN1CCC(S(=O)(=O)NC(=O)Nc2c3c(cc4c2CCC4)CCC3)CC1 [Example 21, Methyl 2-(4-(N-((1,2,3,5,6,7-Hexahydro-s-indacen-4-yl)carbamoyl)sulfamoyl)piperidin-1-yl)acetate, potassium salt] | 1 to 10
7 | CCC(CC)N1CCC(S(=O)(=O)NC(=O)Nc2c3c(cc4c2CCC4)CCC3)C1 (stereo not drawn) [Example 81, N-((1,2,3,5,6,7-Hexahydro-s-indacen-4-yl)carbamoyl)-1-(pentan-3-yl)pyrrolidine-3-sulfonamide, potassium salt] | 1 to 10
8 | O=C(Nc1c2c(cc3c1CCC3)CCC2)NS(=O)(=O)C1CCCN(CC2CC2)C1 (stereo not drawn) [Example 57, 1-(Cyclopropylmethyl)-N-((1,2,3,5,6,7-hexahydro-s-indacen-4-yl)carbamoyl)piperidine-3-sulfonamide, potassium salt] | 1 to 10
9 | CCN1CCC(S(=O)(=O)NC(=O)Nc2c(-c3ccnc(OC)c3)ccc3c2CCC3)CC1 [Example 188, 1-Ethyl-N-((5-(2-methoxypyridin-4-yl)-2,3-dihydro-1H-inden-4-yl)carbamoyl)piperidine-4-sulfonamide, potassium salt] | 1 to 10
10 | CC(C)c1cc(F)cc(-c2cccnc2)c1NC(=O)NS(=O)(=O)C1CCN(C(C)C)CC1 [Example 176, N-((4-Fluoro-2-isopropyl-6-(pyridin-3-yl)phenyl)carbamoyl)-1-isopropylpiperidine-4-sulfonamide] | 1 to 10
11 | CC(C)(O)CN1CC(S(=O)(=O)NC(=O)Nc2c3c(cc4c2CCC4)CCC3)C1 [Example 84, N-((1,2,3,5,6,7-Hexahydro-s-indacen-4-yl)carbamoyl)-1-(2-hydroxy-2-methylpropyl)azetidine-3-sulfonamide, potassium salt] | < 1
12 | CC1(CCN2CC(S(=O)(=O)NC(=O)Nc3c4c(cc5c3CCC5)CCC4)C2)N=N1 [Example 139, N-((1,2,3,5,6,7-Hexahydro-s-indacen-4-yl)carbamoyl)-1-(2-(3-methyl-3H-diazirin-3-yl)ethyl)azetidine-3-sulfonamide, potassium salt] | 1 to 10
13 | CC(C)N1CC2(CC(S(=O)(=O)NC(=O)Nc3c4c(cc5c3CCC5)CCC4)C2)C1 [Example 63, N-((1,2,3,5,6,7-Hexahydro-s-indacen-4-yl)carbamoyl)-2-isopropyl-2-azaspiro[3.3]heptane-6-sulfonamide, potassium salt] | 1 to 10
14 | CS(=O)(=O)N1CCC(S(=O)(=O)NC(=O)Nc2c3c(cc4c2CCC4)CCC3)CC1 [Example 29, N-((1,2,3,5,6,7-Hexahydro-s-indacen-4-yl)carbamoyl)-1-(methylsulfonyl)piperidine-4-sulfonamide, potassium salt] | 1 to 10
15 | O=C(Nc1c2c(cc3c1CCC3)CCC2)NS(=O)(=O)C1CCN(C2CCC2)CC1 [Example 15, 1-Cyclobutyl-N-((1,2,3,5,6,7-hexahydro-s-indacen-4-yl)carbamoyl)piperidine-4-sulfonamide, potassium salt] | 1 to 10
16 | COc1cc(-c2ccc3c(c2NC(=O)NS(=O)(=O)c2ccn(C(C)C)c(=O)c2)CCC3)ccn1 [Example 179, 1-Isopropyl-N-((5-(2-methoxypyridin-4-yl)-2,3-dihydro-1H-inden-4-yl)carbamoyl)-2-oxo-1,2-dihydropyridine-4-sulfonamide, sodium salt] | < 1
17 | O=C(Nc1c2c(cc3c1CCC3)CCC2)NS(=O)(=O)C1CN(C2COC2)C1 [Example 116, N-((1,2,3,5,6,7-Hexahydro-s-indacen-4-yl)carbamoyl)-1-(oxetan-3-yl)azetidine-3-sulfonamide, potassium salt] | 1 to 10
18 | CCN1CC(S(=O)(=O)NC(=O)Nc2c(-c3ccnc(C#N)c3)cc(F)cc2C(C)C)C1 [Example 165, N-((2-(2-Cyanopyridin-4-yl)-4-fluoro-6-isopropylphenyl)carbamoyl)-1-ethylazetidine-3-sulfonamide] | 1 to 10
19 | CSCCN1CC(S(=O)(=O)NC(=O)Nc2c3c(cc4c2CCC4)CCC3)C1 [Example 107, N-((1,2,3,5,6,7-Hexahydro-s-indacen-4-yl)carbamoyl)-1-(2-(methylthio)ethyl)azetidine-3-sulfonamide, potassium salt] | < 1
20 | O=C(Nc1c2c(cc3c1CCC3)CCC2)NS(=O)(=O)C1CN(CCC2CCOC2)C1 (stereo not drawn) [Example 142, N-((1,2,3,5,6,7-Hexahydro-s-indacen-4-yl)carbamoyl)-1-(2-(tetrahydrofuran-3-yl)ethyl)azetidine-3-sulfonamide, potassium salt] | < 1
21 | CC(C)N1CCC(S(=O)(=O)NC(=O)Nc2c3c(cc4c2CCC4)CCC3)CC1 [Example 47, N-((1,2,3,5,6,7-Hexahydro-s-indacen-4-yl)carbamoyl)-1-iso-propylpiperidine-4-sulfonamide, potassium salt] | 1 to 10
22 | O=C(Nc1c2c(cc3c1CCC3)CCC2)NS(=O)(=O)C1CN2CCC1CC2 (stereo not drawn) [Example 43, N-((1,2,3,5,6,7-Hexahydro-s-indacen-4-yl)carbamoyl) quinuclidine-3-sulfonamide, potassium-salt] | 1 to 10
23 | O=C(Nc1c2c(cc3c1CCC3)CCC2)NS(=O)(=O)C1CN(Cc2ccccn2)C1 [Example 104, N-((1,2,3,5,6,7-Hexahydro-s-indacen-4-yl)carbamoyl)-1-(pyridin-2-ylmethyl)azetidine-3-sulfonamide, potassium salt] | < 1
24 | O=C(Nc1c2c(cc3c1CCC3)CCC2)NS(=O)(=O)C1CN(CC2CCCCC2)C1 [Example 89, 1-(Cyclohexylmethyl)-N-((1,2,3,5,6,7-hexahydro-s-indacen-4-yl)carbamoyl)azetidine-3-sulfonamide, potassium salt] | 1 to 10
25 | CC(C)c1cc(F)cc(-c2ccnc(C#N)c2)c1NC(=O)NS(=O)(=O)C1CN(C(C)C)C1 [Example 157, N-((2-(2-Cyanopyridin-4-yl)-4-fluoro-6-isopropylphenyl)carbamoyl)-1-isopropylazetidine-3-sulfonamide] | 1 to 10
26 | CC(C)c1cc(F)cc(-c2ccnc(C#N)c2)c1NC(=O)NS(=O)(=O)C1CN(C2CCC2)C1 [Example 161, N-((2-(2-Cyanopyridin-4-yl)-4-fluoro-6-isopropylphenyl)carbamoyl)-1-cyclobutylazetidine-3-sulfonamide] | 1 to 10
27 | CCCN1CCC(S(=O)(=O)NC(=O)Nc2c3c(cc4c2CCC4)CCC3)CC1 [Example 19, N-((1,2,3,5,6,7-Hexahydro-s-indacen-4-yl)carbamoyl)-1-propyl piperidine-4-sulfonamide, potassium salt] | 1 to 10
28 | C[Si](C)(C)CN1CC(S(=O)(=O)NC(=O)Nc2c3c(cc4c2CCC4)CCC3)C1 [Example 136, N-((1,2,3,5,6,7-Hexahydro-s-indacen-4-yl)carbamoyl)-1-((trimethylsilyl)methyl)azetidine-3-sulfonamide, potassium salt] | 1 to 10
29 | CC(C)N1CCC(S(=O)(=O)NC(=O)Nc2c3c(cc4c2CCC4)CCC3)C1=O (stereo not drawn) [Example 68, N-((1,2,3,5,6,7-Hexahydro-s-indacen-4-yl)carbamoyl)-1-isopropyl-2-oxopyrrolidine-3-sulfonamide, potassium salt] | < 1
30 | N#CCN1CCC(S(=O)(=O)NC(=O)Nc2c3c(cc4c2CCC4)CCC3)CC1 [Example 14, 1-(Cyanomethyl)-N-((1,2,3,5,6,7-hexahydro-s-indacen-4-yl)carbamoyl)piperidine-4-sulfonamide, potassium salt] | 1 to 10
